In ChEMBL document CHEMBL1201862, “PubChem BioAssay data set” (2004):
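These data come from cells grown in 96-well plates and exposed to compound for 48 hours at five concentrations. At the GI50, growth is halved.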 Activity calls are given as the source filed them. No stated cut-off is given here; in the data, active = GI50 up to about 1.1 µM and inactive = higher.

Tests used:
Assay in all cases: DTP human tumour cell line panel, 48 h
DU-145 = tested on: DU-145
EKVX = tested on: EKVX
HCC 2998 = tested on: HCC 2998
HCT-15 = tested on: HCT-15
HL-60 = tested on: HL-60
HOP-62 = tested on: HOP-62
HOP-92 = tested on: HOP-92
HT-29 = tested on: HT-29
K562 = tested on: K562
MCF7 = tested on: MCF7
MDA-N = tested on: MDA-N
NCI-H23 = tested on: NCI-H23
NCI-H460 = tested on: NCI-H460
OVCAR-4 = tested on: OVCAR-4
OVCAR-8 = tested on: OVCAR-8
RPMI-8226 = tested on: RPMI-8226
SF-295 = tested on: SF-295
SK-MEL-2 = tested on: SK-MEL-2
SK-OV-3 = tested on: SK-OV-3
SR = tested on: SR

Structure (SMILES) | GI50 (DU-145) | GI50 (EKVX) | GI50 (HCC 2998) | GI50 (HCT-15) [µM] | GI50 (HL-60) | GI50 (HOP-62) | GI50 (HOP-92) | GI50 (HT-29) | GI50 (K562) | GI50 (MCF7) | GI50 (MDA-N) | GI50 (NCI-H23) | GI50 (NCI-H460) | GI50 (OVCAR-4) | GI50 (OVCAR-8) | GI50 (RPMI-8226) | GI50 (SF-295) | GI50 (SK-MEL-2) | GI50 (SK-OV-3) | GI50 (SR)
Cc1ccc2c(c1)c1ccc3c(c1n2C)C(=O)C=CC3=O | 7.33 µM (inactive) | > 4.85 µM (inactive) | 9.77 µM (inactive) | 1.75 | 0.75 µM (active) | > 10 µM (inactive) | 2.03 µM (inactive) | > 10 µM (inactive) | 0.468 µM (active) | 1.8 µM (inactive) | 1.73 µM (inactive) | 2.62 µM (inactive) | > 10 µM (inactive) | 2.32 µM (inactive) | 2.18 µM (inactive) | 1.23 µM (inactive) | > 10 µM (inactive) | 7.48 µM (inactive) | > 10 µM (inactive) | 0.27 µM (active)
O=C(O)c1ccc(NC(c2ccccc2)c2ccc3cccnc3c2O)cc1 (stereo not given) | 17.7 µM (inactive) | 7.85 µM (inactive) | 13 µM (inactive) | 4.95 | 2.65 µM (inactive) | 6.15 µM (inactive) | 20.2 µM (inactive) | 5.15 µM (inactive) | 3.56 µM (inactive) | 4.42 µM (inactive) | 17.5 µM (inactive) | 14.7 µM (inactive) | 4.09 µM (inactive) | 4.63 µM (inactive) | 3.85 µM (inactive) | 4.38 µM (inactive) | 4 µM (inactive) | 26.1 µM (inactive) | 13.6 µM (inactive) | 3.32 µM (inactive)
CC(C)CC(=O)OC[n+]1ccc(-c2c(COC(=O)NC(C)C)c(COC(=O)NC(C)C)c3n2CCC3)cc1 | > 100 µM (inactive) | > 100 µM (inactive) | > 100 µM (inactive) | > 100 | 65.8 µM (inactive) | > 100 µM (inactive) | > 100 µM (inactive) | > 100 µM (inactive) | > 100 µM (inactive) | 76.4 µM (inactive) | > 100 µM (inactive) | 75.2 µM (inactive) | 76.9 µM (inactive) | > 100 µM (inactive) | > 100 µM (inactive) | > 100 µM (inactive) | > 100 µM (inactive) | > 100 µM (inactive) | > 100 µM (inactive) | 6.19 µM (inactive)
CC1CC2CCCC(=O)C2=C(O)O1 (stereo not given) | > 100 µM (inactive) | 86.7 µM (inactive) | > 100 µM (inactive) | > 100 | > 100 µM (inactive) | > 100 µM (inactive) | > 100 µM (inactive) | > 100 µM (inactive) | > 100 µM (inactive) | > 100 µM (inactive) | > 100 µM (inactive) | > 100 µM (inactive) | > 100 µM (inactive) | > 100 µM (inactive) | > 100 µM (inactive) | > 100 µM (inactive) | > 100 µM (inactive) | > 100 µM (inactive) | > 100 µM (inactive) | > 100 µM (inactive)
Cc1cccc(O)c1-c1nnc(CCCCCCCCc2nnc(-c3c(C)cccc3O)n2N)n1N | > 100 µM (inactive) | > 67.3 µM (inactive) | > 100 µM (inactive) | > 100 | 0.139 µM (active) | 27.6 µM (inactive) | 18 µM (inactive) | > 100 µM (inactive) | > 100 µM (inactive) | 55 µM (inactive) | > 64.6 µM (inactive) | 48.6 µM (inactive) | 24.3 µM (inactive) | 18.7 µM (inactive) | 1.86 µM (inactive) | > 100 µM (inactive) | 51.6 µM (inactive) | 38.3 µM (inactive) | > 60.5 µM (inactive) | 19.1 µM (inactive)
O=c1c2c3c(sc2nc(S)n1-c1ccccc1)CCCc1ccc([N+](=O)[O-])cc1-3 | 48.9 µM (inactive) | > 100 µM (inactive) | 24.6 µM (inactive) | 22 | 17.6 µM (inactive) | 35.1 µM (inactive) | 20.6 µM (inactive) | 25.3 µM (inactive) | 11.7 µM (inactive) | 36.6 µM (inactive) | 86.5 µM (inactive) | 30.5 µM (inactive) | 36 µM (inactive) | 38.9 µM (inactive) | 28.8 µM (inactive) | 22.6 µM (inactive) | 30.4 µM (inactive) | > 100 µM (inactive) | > 100 µM (inactive) | 27.4 µM (inactive)
O=C1N/C(=N/N=C\c2ccccc2)N/C1=C/c1ccccc1 | 22.3 µM (inactive) | 23.8 µM (inactive) | 13.9 µM (inactive) | 32.9 | 34 µM (inactive) | 19.5 µM (inactive) | 22.2 µM (inactive) | 24.9 µM (inactive) | 21.3 µM (inactive) | 31.5 µM (inactive) | 30.6 µM (inactive) | 21.7 µM (inactive) | 20.6 µM (inactive) | 15.2 µM (inactive) | 26.2 µM (inactive) | 26.6 µM (inactive) | 38.9 µM (inactive) | 27.6 µM (inactive) | 37.7 µM (inactive) | 16.1 µM (inactive)
COC(=O)c1ccccc1NC(=O)C(=O)CC(=O)c1ccccc1NC1=CC(=O)C(=O)c2ccccc21 | 23.2 µM (inactive) | 44.8 µM (inactive) | 25.6 µM (inactive) | 5.65 | 1.55 µM (inactive) | 22.7 µM (inactive) | 5.16 µM (inactive) | 44.5 µM (inactive) | 2.91 µM (inactive) | 8.87 µM (inactive) | 1.71 µM (inactive) | 5.09 µM (inactive) | 19.7 µM (inactive) | 7.91 µM (inactive) | 7.01 µM (inactive) | 2.64 µM (inactive) | 15.6 µM (inactive) | 12.5 µM (inactive) | 32.5 µM (inactive) | 2.67 µM (inactive)
CC(NC1=NCCO1)c1cccc([N+](=O)[O-])c1 (stereo not given) | > 100 µM (inactive) | > 100 µM (inactive) | > 100 µM (inactive) | > 100 | > 100 µM (inactive) | > 100 µM (inactive) | 30 µM (inactive) | > 100 µM (inactive) | > 100 µM (inactive) | > 100 µM (inactive) | > 100 µM (inactive) | > 100 µM (inactive) | > 100 µM (inactive) | > 100 µM (inactive) | > 100 µM (inactive) | > 100 µM (inactive) | > 100 µM (inactive) | > 100 µM (inactive) | > 100 µM (inactive) | > 100 µM (inactive)
Clc1nss/c1=N/c1nonc1-c1ccccc1 | 22.7 µM (inactive) | 37.4 µM (inactive) | > 100 µM (inactive) | > 100 | 3.62 µM (inactive) | 51.3 µM (inactive) | 40.2 µM (inactive) | 22 µM (inactive) | 23.2 µM (inactive) | 22.7 µM (inactive) | 20.1 µM (inactive) | 26.1 µM (inactive) | > 100 µM (inactive) | 49.9 µM (inactive) | 28.6 µM (inactive) | 27.2 µM (inactive) | 55.2 µM (inactive) | 34.9 µM (inactive) | > 100 µM (inactive) | 18.4 µM (inactive)
